Experimental findings from US20160089373A1, “CARDIO- AND RENOPROTECTIVE ANTIDIABETIC THERAPY” (Boehringer Ingelheim International GmbH, priority 2013, published 2016) are described below.

Series [1] relates to glucagon-like peptide 1 receptor (GLP-1R). As to the kind of experiment: GLP-1R immunohistochemical staining of kidney sections in db/db mice. The format is in vivo. Conditions: P<0.05 vs vehicle-treated db/db mice. As for the experimental part:
(§1) Diabetic nephropathy is the main cause of end-stage renal disease. […] Heterozygous db/+ mice treated with vehicle were used as controls (n=8). Levels of glucose, triglycerides, insulin, cystatin C and creatinine were analysed in serum and urine samples at baseline and monthly thereafter. Body weight, urinary albumin excretion and OGTT were monitored periodically.
(§2) Renal histology (glomerulosclerosis, tubulointerstitial fibrosis) and expression of the sialoglycoprotein podocalyxin (a marker of podocyte integrity in the glomeruli, marker for glomerular damage), glucagon-like peptide 1 receptor (GLP-1R), alpha-smooth muscle actin and type I collagen were evaluated at the end of the study.

The subject of a further series is male diabetic db/db mice. As to the kind of experiment: Diabetic nephropathy study in db/db mice (serum/urine parameters, renal histology). The class given is in vivo. Conditions: for glomerular mesangial matrix expansion (histology) / tubulointerstitial fibrosis (histology): compared with diabetic vehicle; for effects on fasted or post-prandial glucose levels: db/db mice, 12 weeks treatment, linagliptin 3 mg/kg/day, enalapril 20 mg/kg/day. As for the experimental part: as §1, §2

Series [2] in a line: Meta-analysis of renal safety/outcomes in 13 phase 3 placebo-controlled trials, 5466 T2D patients.
Text: The aim of this study was to evaluate renal safety/outcomes with linagliptin in phase 3, randomized, double-blind, placebo-controlled trials (≧12 wks).
Another series concerns podocalyxin. The series is described as follows: Podocalyxin immunohistochemistry of kidney sections (podocyte integrity) in db/db mice. Conditions: 12 weeks, semi-quantitative score 0-3, p<0.05 vs diabetic mice. The format is in vivo. Here is the method: The expression of podocalyxin is analysed by immunohistochemistry using a podocalyxin specific antibody. Kidney sections from male diabetic db/db mice (10 weeks old at start and treated for 3 months) in the following groups are analysed:
All of the evaluations of the glomerular staining intensities are done semi-quantitatively by two different experts of kidney pathology blinded for the slides.
The predefined scoring gradient is 0, 1, 2, and 3.0 means no expression, whereas 3 is given when expression is highest. Group means are compared with a non-parametric test. P values less than 0.05 are considered significant.
as §1, §2

The conditions of series [3]: for feτ, s: steady state (Day 12), gMean.
Series [4] can be described thus: Pooled analysis of seven placebo-controlled trials: albuminuria in elderly T2D patients with diabetic nephropathy (set 2). The format is in vivo, human. To be noted: 5 mg q.d., 24 weeks, set 2, aged ≧65 years. The text has this:
(§3) The endpoint in both sets was the percentage change in geometric mean UACR after 24 weeks.

The nature of series [5]: Pooled analysis of four 24-week placebo-controlled trials: albuminuria in T2D patients with early diabetic nephropathy on stable ACE/ARB (set 1). The class given is in vivo, human. To be noted: 5 mg qd, 24 weeks.
Text: Despite optimal therapy, people with type 2 diabetes (T2D) remain at high risk for kidney damage, manifest as abuminuria, and many develop progressive renal failure. Further, despite optimal therapy with inhibitors of the renin-angiotensin-aldosterone system (RAAS), patients with type 2 diabetes mellitus (T2DM) remain at an increased risk of progressive renal failure and cardiovascular disease, for which abuminuria has emerged as a predictive biomarker. […] Participants were included in this analysis if they had: i) 30≦UACR≦3000 mg/g creatinine; ii) stable treatment with ACE/ARBs ≧4 weeks prior and during the trial; and iii) eGFR >30 ml/min/1.73 m^2. The endpoint was the percentage change in geometric mean UACR. […] After 24 weeks, placebo-corrected changes in A1C and FPG were −0.71% and −26 mg/dl, respectively (both p<0.0001). […] This protective effect may be independent of race.
as §3

Setting [6] is: linagliptin compared with enalapril, p<0.05.

Read-outs that look alike come from different tables or passages of the source.

For `CC#CCn1c(N2CCC[C@@H](N)C2)nc2c1c(=O)n(Cc1nc(C)c3ccccc3n1)c(=O)n2C` [linagliptin], in series [1], the “expression of GLP-1R in the glomeruli” value amounted to 1.90±0.04. Also, the “glomerular mesangial matrix expansion (histology)” value with male diabetic db/db mice (p<0.05) is “reduced almost to control levels”. Also, the “tubulointerstitial fibrosis (histology)” value in the series with male diabetic db/db mice (p<0.05) is given as “reduced almost to control levels”. In the series on male diabetic db/db mice, the “effects on fasted or post-prandial glucose levels” value was “limited effects”. In addition, in the series on male diabetic db/db mice (setting [6]), the tubulointerstitial fibrosis result is given as “significantly decreased”. Moreover, the “urinary albumin excretion rates” value with male diabetic db/db mice (setting [6]) is “significantly decreased”. Also, the “patients with composite renal endpoint events” value in series [2] (linagliptin 5 mg qd, n=3505) worked out at 12.8%. Further, the “patients with composite renal endpoint events (number)” value in series [2] (linagliptin 5 mg qd, n=3505) was 448. Moreover, the “HR for the composite endpoint vs placebo” value was 0.77 in series [2] (patients <65 yrs) and 1.04 in series [2] (patients >65 yrs). In the series on podocalyxin, the “podocalyxin expression (glomerular staining score)” value came to 2.3±0.2. Besides, the “feτ, s” value in series [3] (1 mg once daily oral) came to 3.34%; in series [3] (2.5 mg once daily oral), 3.06%; in series [3] (5 mg once daily oral) it was 6.27%; in series [3] (10 mg once daily oral), 3.22%. Further, the route of excretion result in series [3] (human, in vivo) was “primarily excreted unchanged via the bile”. Also, the “excreted via the kidney” value in series [3] (therapeutic oral dose levels, of the administered oral dose) is listed as under 7%. The “UACR reduction versus placebo (trend)” value in series [4] is given as −25%. In addition, the “UACR between group difference vs placebo” value in series [5] (set 1) is listed as −29%. Besides, the “lowering of adjusted UACR (percentage change in geometric mean)” value in series [5] (set 1, on stable ACE/ARB) was 33%.
On to `CCOC(=O)[C@H](CCc1ccccc1)N[C@@H](C)C(=O)N1CCC[C@H]1C(=O)O` [enalapril, reference compound], for which, in the series with male diabetic db/db mice (p<0.05), the “glomerular mesangial matrix expansion (histology)” value was “reduced almost to control levels” and the “tubulointerstitial fibrosis (histology)” value was “reduced almost to control levels”. For the same compound, the “effects on fasted or post-prandial glucose levels” value with male diabetic db/db mice is on record as “limited effects”. The “podocalyxin expression (glomerular staining score)” value with podocalyxin amounted to 2.4±0.2.
